Usually pIC50 stands for −log10 of the IC50, conventionally taken in molar units. A higher pIC50 goes with a low IC50.

pIC50: −log10 of the molar value. Counter-ions that a name gives are not always drawn.

Experimental findings from US20250115558A1, “PYRIDAZINE DERIVATIVES AND RELATED USES” (NodThera Limited, priority 2023, published 2025) are described below.

In one test the test system is THP-1. Nature of the test: THP-1 IC50 assay. It is filed as cell-based. To be noted: Homo sapiens; THP-1 cells.
Test [1] concerns IL-1β release upon NLRP3 activation in peripheral blood mononuclear cells (PBMC). Description: PBMC IC50 Determination Assay. It is filed as cell-based. To be noted: Homo sapiens; inhibition of IL-1β release; LPS-primed PBMC stimulated with ATP or nigericin. In short, it runs like this: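 Human PBMC from buffy coats primed 3 h with LPS (1 μg/mL in protocol B), then compound for 30 min, then ATP (5 mM) or nigericin (10 μM; protocol A only) for 1 h. IL-1β released into medium measured by ELISA at 450 nm (protocol A) or HTRF at […] (protocol B).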

In the case of `Cc1cc(C(F)(F)F)cc(O)c1-c1ccc(CNc2ncccn2)nn1` [Compound 74, 3-Methyl-2-(6-((pyrimidin-2-ylamino)methyl)pyridazin-3-yl)-5-(trifluoromethyl)phenol], the pIC50 (in the test with THP-1; in test [1]) was 5.52 to 6.00 in each case.

Turning to `Cc1cc(C(F)(F)F)cc(O)c1-c1ccc(COC2CCNCC2)nn1` [Compound 19, 3-Methyl-2-(6-((piperidin-4-yloxy)methyl)pyridazin-3-yl)-5-(trifluoromethyl)phenol], the pIC50 (in the test with THP-1; in test [1]) was 5.52 to 6.00 each time.

Regarding `Cc1cc(C(F)(F)F)cc(O)c1-c1ccc(CNc2cnsc2)nn1` [Compound 150], the pIC50 (in the test with THP-1; in test [1]) was greater than 6.30 in each case.

For `Cc1cc(NCc2ccc(-c3c(C)cc(C(F)(F)F)cc3O)nn2)on1` [Compound 149], the pIC50 (with THP-1; in test [1]) was 5.52 to 6.00 throughout.

On to `Cc1cnc(NCc2ccc(-c3c(C)cc(C(F)(F)F)cc3O)nn2)s1` [Compound 83, 3-Methyl-2-(6-{[(5-methyl-1,3-thiazol-2-yl)amino]methyl}pyridazin-3-yl)-5-(trifluoromethyl)phenol], for which the figures for the negative logarithm of the IC50 (pIC50) (with THP-1; in test [1]) were 5.52 to 6.00 and 6.00 to 6.30, respectively.

For the compound `Cc1cc(C(F)(F)F)cc(O)c1-c1ccc(CN2CCC(F)(F)C2)nn1` [Compound 38, 2-(6-((3,3-Difluoropyrrolidin-1-yl)methyl)pyridazin-3-yl)-3-methyl-5-(trifluoromethyl)phenol], the pIC50 in the test on THP-1 was 6.00 to 6.30; in test [1], greater than 6.30.

As to `Oc1cc(C(F)(F)F)ccc1-c1ccc(CNC2CCOCC2)nn1` [Compound 13, 2-(6-(((Tetrahydro-2H-pyran-4-yl)amino)methyl)pyridazin-3-yl)-5-(trifluoromethyl)phenol], the negative logarithm of the IC50 (pIC50) (in the test on THP-1; in test [1]) was 5.00 to 5.52 in each case.

Consider `Cc1cc(C(F)(F)F)cc(O)c1-c1ccc(Cn2ccn(C)c2=N)nn1` [Compound 123], for which the negative-log IC50 (pIC50) in the test with THP-1 is 6.00 to 6.30; in test [1] it was 5.52 to 6.00.

For the compound `CNCc1ccc(-c2c(C)cc(C(F)(F)F)cc2O)nn1` [Compound 93], the pIC50 (in the test with THP-1; in test [1]) was 5.52 to 6.00 each time.

For `Cc1cc(C2CC2)cc(O)c1-c1ccc(CNC2CCOCC2)nn1` [Compound 48, 5-Cyclopropyl-3-methyl-2-(6-(((tetrahydro-2H-pyran-4-yl)amino)methyl)pyridazin-3-yl)phenol], the negative-log IC50 (pIC50) (with THP-1; in test [1]) was 5.52 to 6.00 each time.

`Cc1cc(C(F)(F)F)cc(O)c1-c1ccc(CNC(C)C)nn1` [Compound 99]: the results for the pIC50 (in the test with THP-1; in test [1]) were 6.00 to 6.30 and greater than 6.30, respectively.

Consider `Cc1cc(C(F)(F)F)cc(O)c1-c1ccc(CNc2nccn2C)nn1` [Compound 82, 3-Methyl-2-(6-{[(1-methyl-1H-imidazol-2-yl)amino]methyl}pyridazin-3-yl)-5-(trifluoromethyl)phenol hydrochloride], for which the pIC50 is 5.52 to 6.00 in the test on THP-1 and 6.00 to 6.30 in test [1].

For the compound `Cc1cc(C(F)(F)F)cc(O)c1-c1ccc(CNC2CCN(C)C(=O)C2)nn1` (centres unmarked) [Compound 112], the pIC50 in the test on THP-1 is 5.52 to 6.00; in test [1], 6.00 to 6.30.
